# Assay results taken from PubChem BioAssay AID179 (DTP/NCI, 2004).
# Active and inactive are the calls of the source.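 Rule for the calls: active = compounds giving half or more protection of infected cells from virus-caused growth loss, again on retest; inactive = the rest.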
# Test system: CEM cells HIV-1 protection, formazan growth assay
# Experiment: NCI AIDS Antiviral Assay
# Settings: for IC50: measured here: growth of uninfected CEM cells
# Method in brief: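 CEM (human) cells, HIV-1 infected vs uninfected, 5-point dosing, formazan growth read-out. Retest threshold 50% protection.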
Compound,EC50 [µM],IC50 [µM],outcome
O=c1[nH]c(=O)n(C2COC(CO)C2O)cc1F (centres undefined),> 200,6.03,
CN(C)CC1CCCCC1O (centres undefined),> 1290,> 1290,
CCNC(=O)OCc1cnc(C)c(OC(=O)NCC)c1COC(=O)NCC,> 200,31.6,
CCc1ccccc1NC(=O)C(=O)CC(=O)c1sc(Nc2ccccc2Cl)nc1C,> 200,87.1,
O=C1CS(=O)(=O)C(c2ccccc2)N1N1C(=O)CS(=O)(=O)C1c1ccccc1 (centres undefined),> 200,> 200,
C(=Nc1cnc2ccccc2c1)c1ccc2ccccc2n1,> 35.5,19.1,
COc1cc2c(cc1OC)[C@H](C)N1CCc3cc(OC)c(OC)cc3[C@@H]1C2,> 200,> 200,
CCOC(=O)/C(=C\c1ccccc1)[Se]c1ccccc1,> 56.2,> 56.2,
CC[C@](O)(CC(=O)O[C@H]1C(=O)O[C@@H]2C[C@H]3C(C)=CC(=O)[C@@H](O)[C@]3(C)[C@H]3[C@@]4(O)OC[C@]32[C@@H]1[C@@H](C)[C@H]4O)C(C)C,> 0.2,0.00363,
CCCCCCCCCCCC(=O)NCc1ccc(OC(=O)CCCCCCCCCCC)c(OC)c1,> 200,40.7,
COc1ccc(N2C(=O)C3c4[nH]c5ccc(C)cc5c4C4CCC(C(C)(C)C)CC4C3C2=O)cc1 (centres undefined),12,47.9,
O=C1CN(c2ccccc2)C(=O)CN1CCN1CC(=O)N(c2ccccc2)CC1=O,> 200,> 200,
COC(=O)[C@H](COC(C)(C)C)NC(=O)N[C@H](C)c1ccccc1,> 200,> 200,
CCCCCCCCCCCCCCCCSS(=O)(=O)c1ccc(C)cc1,> 31.6,> 31.6,
Cc1cc(=O)[nH]c(NN2C(Cl)C(=O)C2c2ccc(Cl)cc2)n1 (centres undefined),> 55,4.68,
Cc1cn(COCC(O)C[N+](=O)[O-])c(=O)[nH]c1=O (centres undefined),> 200,> 200,

Compound,EC50 [µM],IC50 [µM],outcome
CC(C)C/C(CC(=O)CCC(=O)Nc1ccccc1[N+](=O)[O-])=N\NC(=O)c1cc2ccccc2cc1O,> 70.8,11.7,
Cc1nc(C)c(C(=O)Nc2cccc3c2C(=O)NC3=O)cc1C(=O)Nc1cccc2c1C(=O)NC2=O,> 195,> 195,
COC[C@@H](N=CN1CCc2cc(OC)c(OC)cc2C1)C(C)(C)C,> 741,> 741,
OCCOc1ccc(-c2cc(-c3ccccn3)nc(-c3ccccn3)c2)cc1,> 3.72,0.646,
COc1cc2c3c(c1OC)-c1[nH]c4ccccc4c1C1CCCN(CC2)C31 (centres undefined),> 138,15.1,
CCCC(=O)OC1C(C2COC(C)(C)O2)OC2OC(C)(C)OC21 (centres undefined),,,inactive
O=C1c2ccccc2C(=O)N1CCS(=O)(=O)CCS(=O)(=O)CCN1C(=O)c2ccccc2C1=O,> 200,> 200,
Cc1cc2c(c(=O)o1)C(=O)CC(C)O2 (centres undefined),> 776,117,
O=C1/C(=C\Oc2ccc(F)cc2)N2CCC1CC2,> 200,102,
O=C1Sc2ccccc2C(=O)N2CS(=O)CC12 (centres undefined),> 100,> 100,
Cc1ccc(C)c(C(=O)c2ccccc2C(=O)O)c1,> 200,> 200,
C=C1CC2OC(=O)C(=C)C2C(O)C2C(=C)CCC12 (centres undefined),,,inactive
CCOC(=O)Cc1nc2nn(Cc3ccccc3)cc2c(=O)[nH]1,> 200,> 200,
O=C1CC(c2c(-c3ccccc3)[nH]c3ccccc23)C(=O)N1c1ccccc1 (centres undefined),,,inactive
COC(=O)c1nn(-c2ccc(Cl)cc2)c2nc3ccccc3c-2c1C(=O)OC,> 32.4,> 32.4,
